IC50 data for 24 molecules are collected here from patent publication US12187723B2 (BRISTOL-MYERS SQUIBB COMPANY, priority 2019, dated 2025).

This assay addresses T1, human TLR9 (Homo sapiens, UniProt Q9NR96).
T1 construct: host or cells: HEK-Blue cells
T1 sequence (Q9NR96 26-1032): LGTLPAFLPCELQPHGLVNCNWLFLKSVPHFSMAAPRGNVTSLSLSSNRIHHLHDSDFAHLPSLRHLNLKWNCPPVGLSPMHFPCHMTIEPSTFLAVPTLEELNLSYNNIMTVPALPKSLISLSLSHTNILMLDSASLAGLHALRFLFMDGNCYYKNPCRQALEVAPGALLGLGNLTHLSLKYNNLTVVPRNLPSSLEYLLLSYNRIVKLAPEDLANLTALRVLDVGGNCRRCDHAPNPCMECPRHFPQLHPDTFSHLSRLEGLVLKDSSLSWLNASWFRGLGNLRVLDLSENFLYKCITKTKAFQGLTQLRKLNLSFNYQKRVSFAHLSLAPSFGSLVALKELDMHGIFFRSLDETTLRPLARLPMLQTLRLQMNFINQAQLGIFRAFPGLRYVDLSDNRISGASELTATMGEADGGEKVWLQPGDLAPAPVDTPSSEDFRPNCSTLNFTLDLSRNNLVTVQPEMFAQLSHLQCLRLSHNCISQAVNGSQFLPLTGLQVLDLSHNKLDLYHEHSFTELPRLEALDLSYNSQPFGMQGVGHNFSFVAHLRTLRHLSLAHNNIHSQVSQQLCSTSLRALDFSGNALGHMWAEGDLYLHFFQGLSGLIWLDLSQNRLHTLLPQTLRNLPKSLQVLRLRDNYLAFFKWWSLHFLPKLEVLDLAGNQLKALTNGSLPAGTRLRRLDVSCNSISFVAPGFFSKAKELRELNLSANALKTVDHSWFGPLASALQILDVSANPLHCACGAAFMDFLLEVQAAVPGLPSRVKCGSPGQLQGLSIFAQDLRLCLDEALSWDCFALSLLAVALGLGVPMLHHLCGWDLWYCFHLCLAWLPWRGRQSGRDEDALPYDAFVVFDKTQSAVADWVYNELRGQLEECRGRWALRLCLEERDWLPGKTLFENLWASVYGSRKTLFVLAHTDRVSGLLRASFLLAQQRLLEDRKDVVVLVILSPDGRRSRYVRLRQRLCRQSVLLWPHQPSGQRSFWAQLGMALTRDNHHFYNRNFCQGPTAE
Put plainly: TLR9 inhibition reporter assay (HEK-Blue SEAP). Type of assay: cell-based. As to conditions: HEK-Blue cells overexpressing human TLR9, ODN2006 5 nM, 22 hour incubation. Put shortly:
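Agonists used: gardiquimod 7.5 μM (TLR7), R848 15.9 μM (TLR8), ODN2006 5 nM (TLR9), added after 30 min room-temperature compound pre-treatment (0.05 nM–50 μM) of receptor-overexpressing HEK-Blue cells. SEAP reporter (NF-κB/AP-1 driven) read after 22 h at 37 °C; inhibition scaled between agonist+DMSO and reference-inhibitor wells.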
With `COc1cc(-c2cc3[nH]c(=O)n(C4CCC(N5C6CCC5COC6)CC4)c3cc2C(C)C)cn2ncnc12` (single isomer, unassigned) [Example 253, 1-(4-(3-oxa-8-azabicyclo[3.2.1]octan-8-yl)cyclohexyl)-6-isopropyl-5-(8-methoxy-[1,2,4]triazolo[1,5-a]pyridin-6-yl)-1,3-dihydro-2H-benzo[d]imidazol-2-one], the IC50 (usually the concentration that inhibits the measured activity by half) was determined as 11.1 µM. `Cc1cc2c(cc1-c1cc(C)c3ncnn3c1)[nH]c(=O)n2[C@@H]1CCCN(C2CCOCC2)C1` [Example 27, (R)-6-methyl-5-(8-methyl-[1,2,4]triazolo[1,5-a]pyridin-6-yl)-1-(1-(tetrahydro-2H-pyran-4-yl)piperidin-3-yl)-1,3-dihydro-2H-benzo[d]imidazol-2-one]: the 50% inhibitory concentration (IC50) amounted to 8.5 µM. `COc1cc(-c2cc3[nH]c(=O)n(C4CCC(N5CC6(C5)CS(=O)(=O)C6)CC4)c3cc2C(C)C)cn2ncnc12` (single isomer, unassigned) [Example 245, 1-(4-(2,2-dioxido-2-thia-6-azaspiro[3.3]heptan-6-yl)cyclohexyl)-6-isopropyl-5-(8-methoxy-[1,2,4]triazolo[1,5-a]pyridin-6-yl)-1,3-dihydro-2H-benzo[d]imidazol-2-one] showed a half-inhibitory concentration (IC50) of 17.3 µM. Then `CCN[C@H]1CC[C@@H](n2c(=O)[nH]c3cc(-c4cc(C)c5ncnn5c4)c(C)cc32)CC1` [Example 21, 1-((1s,4s)-4-(ethylamino)cyclohexyl)-6-methyl-5-(8-methyl-[1,2,4]triazolo[1,5-a]pyridin-6-yl)-1,3-dihydro-2H-benzo[d]imidazol-2-one], with 7.06 µM. In the case of `COc1cc(-c2cc3[nH]c(=O)n([C@@H]4CCCNC4)c3cc2C(F)(F)F)cn2ncnc12` [110 F, (R)-5-(8-methoxy-[1,2,4]triazolo[1,5-a]pyridin-6-yl)-1-(piperidin-3-yl)-6-(trifluoromethyl)-1,3-dihydro-2H-benzo[d]imidazol-2-one], half-maximal inhibition (IC50) was put at 2.71 µM. With `COc1cc(-c2cc3[nH]c(=O)n(C4CCC(N5CCC(F)(F)CC5)CC4)c3cc2C(C)C)cn2ncnc12` (single isomer, unassigned) [Example 247, 1-(4-(4,4-difluoropiperidin-1-yl)cyclohexyl)-6-isopropyl-5-(8-methoxy-[1,2,4]triazolo[1,5-a]pyridin-6-yl)-1,3-dihydro-2H-benzo[d]imidazol-2-one], inhibition was half-maximal at 14.9 µM (IC50). Consider `COc1cc(-c2cc3[nH]c(=O)n(C4CCC(N5CC(F)(F)C5)CC4)c3cc2C(C)C)cn2ncnc12` (single isomer, unassigned) [Example 296], for which the IC50 is over 50 µM. `COc1cc(-c2cc3[nH]c(=O)n(C4CCC(N5CCC(F)(F)CC5)CC4)c3cc2C(C)C)cn2ncnc12` (single isomer, unassigned) [Example 246, 1-(4-(4,4-difluoropiperidin-1-yl)cyclohexyl)-6-isopropyl-5-(8-methoxy-[1,2,4]triazolo[1,5-a]pyridin-6-yl)-1,3-dihydro-2H-benzo[d]imidazol-2-one] had an IC50 of 15.5 µM. Consider `Cc1cc(-c2ccc3c(c2)[nH]c(=O)n3C2CCNCC2)cn2ncnc12` [1 EB, 5-(8-methyl-[1,2,4]triazolo[1,5-a]pyridin-6-yl)-1-(piperidin-4-yl)-1,3-dihydro-2H-benzo[d]imidazol-2-one], for which 0.347 µM corresponded to half-maximal inhibition (IC50). Take `COc1cc(-c2cc3[nH]c(=O)n(C4CCC(N5C[C@@H](F)[C@@H](F)C5)CC4)c3cc2C(C)C)cn2ncnc12` (single isomer, unassigned) [Example 292]: the IC50 is 28.9 µM. As to `Cc1cc2c(cc1-c1cc(C)c3ncnn3c1)[nH]c(=O)n2[C@@H]1CCCN(CC(C)(C)C)C1` [Example 26, (R)-6-methyl-5-(8-methyl-[1,2,4]triazolo[1,5-a]pyridin-6-yl)-1-(1-neopentylpiperidin-3-yl)-1,3-dihydro-2H-benzo[d]imidazol-2-one], the IC50 stood at 6.72 µM. `Cc1cc2c(cc1-c1cc(C)c3ncnn3c1)[nH]c(=O)n2[C@@H]1CCCN(CCC(F)(F)F)C1` [Example 29, (R)-6-methyl-5-(8-methyl-[1,2,4]triazolo[1,5-a]pyridin-6-yl)-1-(1-(3,3,3-trifluoropropyl)piperidin-3-yl)-1,3-dihydro-2H-benzo[d]imidazol-2-one] came in with a concentration for half-maximal inhibition (IC50) of over 50 µM. As for `Cc1c(-c2cc3[nH]c(=O)n(C4CCC(N5CC6(COC6)C5)CC4)c3cc2C(C)C)cn2ncnc2c1C` (single isomer, unassigned) [Example 298], half-maximal inhibition (IC50) was put at 3.79 µM.

`COc1c(C)c(-c2cc3[nH]c(=O)n(C4CCC(NCC5(S(C)(=O)=O)CC5)CC4)c3cc2C(C)C)cn2ncnc12` (single isomer, unassigned) [Example 259] returned an IC50 of 40.5 µM. Then `CCc1cc2c(cc1-c1cc(OC)c3ncnn3c1)[nH]c(=O)n2[C@@H]1CCCNC1` [119 FB, (R)-6-ethyl-5-(8-methoxy-[1,2,4]triazolo[1,5-a]pyridin-6-yl)-1-(piperidin-3-yl)-1,3-dihydro-2H-benzo[d]imidazol-2-one], with 2.5 µM. For `Cc1cc2c(cc1-c1cc(C)c3ncnn3c1)[nH]c(=O)n2[C@H]1CC[C@H](N)CC1` [1 EF, 1-((1r,4r)-4-aminocyclohexyl)-6-methyl-5-(8-methyl-[1,2,4]triazolo[1,5-a]pyridin-6-yl)-1,3-dihydro-2H-benzo[d]imidazol-2-one] the value was 2.31 µM. For `CCN[C@H]1CC[C@H](n2c(=O)[nH]c3cc(-c4cc(C)c5ncnn5c4)c(C)cc32)CC1` [Example 24, 1-((1r,4s)-4-(ethylamino)cyclohexyl)-6-methyl-5-(8-methyl-[1,2,4]triazolo[1,5-a]pyridin-6-yl)-1,3-dihydro-2H-benzo[d]imidazol-2-one] the value was 1.58 µM; for `COC[C@@H]1CCN(C2CCC(n3c(=O)[nH]c4cc(-c5cc(OC)c6ncnn6c5)c(C(C)C)cc43)CC2)C1` (single isomer, unassigned) [Example 290], 7.1 µM; for `COc1c(C)c(-c2cc3[nH]c(=O)n(C4CCC(N5CCC6(CC5)COC6)CC4)c3cc2C(C)C)cn2ncnc12` (single isomer, unassigned) [Example 268, 1-(4-(2-oxa-7-azaspiro[3.5]nonan-7-yl)cyclohexyl)-6-isopropyl-5-(8-methoxy-7-methyl-[1,2,4]triazolo[1,5-a]pyridin-6-yl)-1,3-dihydro-2H-benzo[d]imidazol-2-one], 17.4 µM. As for `Cc1c(-c2cc3[nH]c(=O)n(C4CCC(N5CC(F)C5)CC4)c3cc2C(C)C)cn2ncnc2c1C` (stereo not drawn) [Example 279, 5-(7,8-dimethyl-[1,2,4]triazolo[1,5-a]pyridin-6-yl)-1-(4-(3-fluoroazetidin-1-yl)cyclohexyl)-6-isopropyl-1,3-dihydro-2H-benzo[d]imidazol-2-one], the concentration for half-maximal inhibition (IC50) turned out to be 10.8 µM.

Consider `COc1cc(-c2cc3[nH]c(=O)n(C4CCC(N5CCC(S(C)(=O)=O)C5)CC4)c3cc2C(C)C)cn2ncnc12` (single isomer, unassigned) [Example 288, 6-isopropyl-5-(8-methoxy-[1,2,4]triazolo[1,5-a]pyridin-6-yl)-1-(4-(3-(methylsulfonyl)pyrrolidin-1-yl)cyclohexyl)-1,3-dihydro-2H-benzo[d]imidazol-2-one], for which the concentration for half-maximal inhibition (IC50) was determined as 47.8 µM. Consider `COc1cc(-c2cc3[nH]c(=O)n(C4CCC(N5C6CCC5COC6)CC4)c3cc2C(C)C)cn2ncnc12` (single isomer, unassigned) [Example 252, 1-(4-(3-oxa-8-azabicyclo[3.2.1]octan-8-yl)cyclohexyl)-6-isopropyl-5-(8-methoxy-[1,2,4]triazolo[1,5-a]pyridin-6-yl)-1,3-dihydro-2H-benzo[d]imidazol-2-one], for which the IC50 is over 50 µM. Consider `COc1cc(-c2cc3[nH]c(=O)n(C4CCC(N5CCSCC5)CC4)c3cc2C(C)C)cn2ncnc12` (stereo not drawn) [Example 250, 6-isopropyl-5-(8-methoxy-[1,2,4]triazolo[1,5-a]pyridin-6-yl)-1-(4-thiomorpholinocyclohexyl)-1,3-dihydro-2H-benzo[d]imidazol-2-one], for which the IC50 amounted to 7.25 µM. The molecule `Cc1cc2c(cc1-c1cc(C)c3ncnn3c1)[nH]c(=O)n2[C@H]1CC[C@@H](N(C)C)CC1` [Example 19, 1-((1s,4s)-4-(dimethylamino)cyclohexyl)-6-methyl-5-(8-methyl-[1,2,4]triazolo[1,5-a]pyridin-6-yl)-1,3-dihydro-2H-benzo[d]imidazol-2-one] registered a concentration for half-maximal inhibition (IC50) of 16.4 µM.
